From patent EP4585587A1, “PROPIONIC ACID DERIVATIVE AND USE THEREOF IN MEDICINE” (priority 2022, dated 2024)
Counter-ions that a name gives are not always drawn. Like-named read-outs stand apart in the source and are kept apart here.

Columns and labels:
[1] = target: T1, integrin α4β7 (Homo sapiens, UniProt P13612+P26010); assay: Integrin α4β7 cell adhesion assay (RPMI8866 cells on MAdCAM-1); format: cell-based
T1 sequence (P13612 34-1032): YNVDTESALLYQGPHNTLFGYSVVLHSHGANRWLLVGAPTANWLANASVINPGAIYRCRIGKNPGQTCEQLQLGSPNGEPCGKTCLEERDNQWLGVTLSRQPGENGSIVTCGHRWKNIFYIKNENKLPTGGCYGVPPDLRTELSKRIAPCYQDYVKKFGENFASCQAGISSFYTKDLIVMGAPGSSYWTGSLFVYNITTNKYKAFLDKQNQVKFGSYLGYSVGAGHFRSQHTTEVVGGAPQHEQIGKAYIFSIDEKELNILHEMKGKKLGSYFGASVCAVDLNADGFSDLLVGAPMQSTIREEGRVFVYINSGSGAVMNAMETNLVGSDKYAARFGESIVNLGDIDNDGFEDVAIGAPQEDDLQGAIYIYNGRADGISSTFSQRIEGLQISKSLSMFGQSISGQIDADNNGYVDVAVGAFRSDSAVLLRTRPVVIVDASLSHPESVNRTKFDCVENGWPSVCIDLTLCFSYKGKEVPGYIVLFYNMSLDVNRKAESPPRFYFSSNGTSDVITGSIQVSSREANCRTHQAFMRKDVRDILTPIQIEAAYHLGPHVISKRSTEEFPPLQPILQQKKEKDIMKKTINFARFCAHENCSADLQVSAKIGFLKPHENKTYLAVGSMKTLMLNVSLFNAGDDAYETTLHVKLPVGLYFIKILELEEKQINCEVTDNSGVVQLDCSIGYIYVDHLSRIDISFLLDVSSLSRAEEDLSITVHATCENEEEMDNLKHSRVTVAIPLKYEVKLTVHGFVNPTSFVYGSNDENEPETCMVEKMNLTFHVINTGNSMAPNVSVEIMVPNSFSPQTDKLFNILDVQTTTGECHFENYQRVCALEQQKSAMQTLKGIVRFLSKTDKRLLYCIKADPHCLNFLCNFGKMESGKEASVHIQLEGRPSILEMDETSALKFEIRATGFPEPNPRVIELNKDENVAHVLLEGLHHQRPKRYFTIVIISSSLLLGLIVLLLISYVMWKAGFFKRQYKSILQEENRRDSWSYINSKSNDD
T1 sequence (P26010 20-798): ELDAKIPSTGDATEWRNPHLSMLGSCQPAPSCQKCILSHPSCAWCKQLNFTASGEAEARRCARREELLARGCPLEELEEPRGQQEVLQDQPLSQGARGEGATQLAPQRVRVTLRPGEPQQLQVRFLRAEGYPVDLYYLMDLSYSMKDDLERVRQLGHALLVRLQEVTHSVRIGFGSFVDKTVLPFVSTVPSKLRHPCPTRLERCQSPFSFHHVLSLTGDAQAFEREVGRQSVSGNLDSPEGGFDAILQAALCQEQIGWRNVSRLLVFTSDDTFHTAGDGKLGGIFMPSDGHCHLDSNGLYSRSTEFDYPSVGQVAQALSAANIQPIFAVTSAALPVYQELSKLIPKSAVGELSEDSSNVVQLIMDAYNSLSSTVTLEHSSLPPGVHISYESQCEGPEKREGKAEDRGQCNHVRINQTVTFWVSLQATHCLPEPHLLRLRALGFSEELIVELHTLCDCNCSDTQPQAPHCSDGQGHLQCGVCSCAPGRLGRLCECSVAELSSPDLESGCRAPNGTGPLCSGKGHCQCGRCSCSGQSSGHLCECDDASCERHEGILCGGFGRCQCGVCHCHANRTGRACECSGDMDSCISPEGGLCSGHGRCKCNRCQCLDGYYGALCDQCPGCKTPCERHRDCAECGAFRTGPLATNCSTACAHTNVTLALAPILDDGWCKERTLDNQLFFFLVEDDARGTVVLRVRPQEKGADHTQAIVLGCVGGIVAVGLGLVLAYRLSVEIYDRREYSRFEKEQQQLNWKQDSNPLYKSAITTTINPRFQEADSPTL
Protocol: MAdCAM-1 was formulated with TBS buffer to a final concentration of 2 µg/ml, 50 µl of the solution was transferred to a 96-well plate, and the plate was coated with same at 4°C overnight. The plate was washed with TBS buffer three times, then 150 µl of a blocking solution (TBS buffer containing 1% BSA) was added, and the plate was blocked at 37°C for 1 h. […] 50 µl of the cell suspension was transferred to a 96-well plate so that the cell density reached 2×10^5 cells/well. Then 1 µl of the compound at different concentrations or DMSO was added and the plate was incubated at 37°C for 1 h or 2 h. The plate was washed with TBS buffer to remove non-adherent cells. 50 µl of a substrate (4-nitrophenyl-N-acetyl-β-D-glucosaminide) was added and the plate was incubated at 37°C for 2 h. […] The IC50 value was calculated using GraphPad Prism 6 software.

[2] = tested on: integrin α4β1; assay: Integrin α4β1-mediated cell adhesion assay (Jurkat cells on VCAM); format: cell-based
Protocol: VCAM was formulated into a final concentration of 0.5 µg/ml with a coating buffer, 50 µl of the solution was transferred to a 96-well plate, and the plate was coated with same at 4°C overnight. The plate was washed with coating buffer three times, then 150 µl of a blocking solution (coating buffer containing 1% BSA) was added, and the plate was blocked at 37°C for 1 h. Jurkat cells were collected, washed twice using DPBS buffer, and then resuspended to 4 × 10^6 cells/ml with an action buffer. 50 µl of the cell suspension was transferred to a 96-well plate so that the cell density reached 2 × 10^5 cells/well. Then 1 µl of the test compound at different concentration or DMSO was added and the plate was incubated at 37°C for 1 h. The plate was washed with coating buffer to remove non-adherent cells. 50 µl of a substrate (4-nitrophenyl-N-acetyl-β-D-glucosaminide) was added and the plate was incubated at 37°C for 2 h. Finally, 90 µl of a termination solution (50 mM glycine and 5 mM EDTA, pH 10.4) was added. The OD value of the plate was read at 405 nm. • Coating buffer: DMEM+ 20 mM HEPES+ 0.4 mM MnCl2 • Action buffer: DMEM+ 20 mM HEPES+ 0.1% BSA+0.4 mM MnCl2 • DMEM: dulbecco's modified eagle medium; • HEPES: 2-[4-(2-hydroxyethyl)piperazin-1-yl]ethanesulfonic acid Table 1 Results of effects of compounds on α4β7- and α4β1-mediated cell adhesion

[3] = RPMI8866 cells, MAdCAM-1 coated plate, numeric value or bound, read-out: RPMI-8866 (α4β7)/MadCAM-1 IC50
[4] = Jurkat cells, VCAM coated plate; read-out: Jurkat (α4β1)/VCAM-1 IC50
[5] = selectivity ratio of Jurkat (α4β1)/VCAM-1 IC50 to RPMI-8866 (α4β7)/MadCAM-1 IC50
[6] = RPMI8866 cells, MAdCAM-1 coated plate, reported as class symbol, read-out: RPMI-8866 (α4β7)/MadCAM-1 IC50

SMILES	IC50 [2, 4]	IC50 [1, 6]	α4β1/α4β7 [2, 5]	other results
Cc1cc(F)cc(C)c1-c1cc(C(CC(=O)O)NC(=O)[C@H](CC(C)C)n2cc(CC3CN(CC4CC4)C3)c(C(F)(F)F)cc2=O)cc2c1CCC2 (stereo partly shown) [Trifluoroacetate salt of compound 15-2]	> 100 nM	–	272	IC50 [1, 3]: < 1 nM
Cc1cc(F)cc(C)c1-c1cc(C(CC(=O)O)NC(=O)C(CC(C)C)n2cc(CC3CCN(C(C)C)CC3)c(C(F)(F)F)cc2=O)cc2c1CCC2 (stereo not shown) [Trifluoroacetate salt of compound 22-2]	–	–	307	–
Cc1cc(F)cc(C)c1-c1c(F)c(C(CC(=O)O)NC(=O)[C@H](CC(C)C)n2cc(CC3CCN(C4CC4)CC3)c(C(F)(F)F)cc2=O)c(F)c2c1CCC2 (single isomer, unassigned) [Compound 24-2]	–	< 10 nM	–	–
COc1cc(C)c(-c2c(F)c(C(CC(=O)O)NC(=O)C(CC(C)C)n3cc(CCN(C)C)c(C(F)(F)F)cc3=O)c(F)c3c2CCC3)c(C)c1 (stereo not shown) [Compound 21-A]	–	–	119	–
COc1cc(C)c(-c2c(F)c(C(CC(=O)O)NC(=O)C(CC(C)C)n3cc(CCN(C)C)c(C(F)(F)F)cc3=O)c(F)c3c2CCC3)c(C)c1 (single isomer, unassigned) [Compound 39-2]	–	–	213	IC50 [1]: < 10 nM; IC50 ([2]; read-out: Jurkat (α4β1)/VCAM-1 IC50; Jurkat cells, VCAM coated plate): > 500 nM
COc1cc(C)c(-c2c(F)c(C(CC(=O)O)NC(=O)C(CC(C)C)n3cc(CCN(C)C)c(C(F)(F)F)cc3=O)c(F)c3c2CCC3)c(C)c1 (single isomer, unassigned) [Trifluoroacetate salt of compound 21-2]	–	–	1586	–
Cc1ccc(F)c(C)c1-c1c(F)c(C(CC(=O)O)NC(=O)[C@H](CC(C)C)n2cc(CCN(C)C)c(C(F)(F)F)cc2=O)c(F)c2c1CCC2 (stereo partly shown) [Trifluoroacetate salt of compound 48-2]	–	–	–	IC50 [1, 3]: < 1 nM
Cc1cc(F)cc(C)c1-c1c(F)c(C(CC(=O)O)NC(=O)C(CC(C)C)n2cc(CCC3CCN(C)C3)c(C(F)(F)F)cc2=O)c(F)c2c1CCC2 (stereo not shown) [Trifluoroacetate salt of compound 26-2]	–	–	177	–
CC#Cc1cc(-c2c(C)cccc2C)c(F)c(C(CC(=O)O)NC(=O)[C@@H](CC(C)C)n2cc(CCN(CC)CC)c(C(F)(F)F)cc2=O)c1F (stereo partly shown) [Trifluoroacetate salt of compound 12-2]	> 100 nM	–	354	IC50 [1, 3]: < 0.5 nM
CC#Cc1cc(-c2c(C)cccc2C)c(F)c(C(CC(=O)O)NC(=O)C(CC(C)C)n2cc(CCN(C)CC3CC3(F)F)c(C(F)(F)F)cc2=O)c1F (single isomer, unassigned) [Compound 7-2]	> 500 nM	< 10 nM	182	–
Cc1cc(F)cc(C)c1-c1cc(C(CC(=O)O)NC(=O)C(CC(C)C)n2cc(CCN(C)CC3CC3(F)F)c(C(F)(F)F)cc2=O)cc2c1CCC2 (single isomer, unassigned) [Compound 1-2]	–	< 10 nM	>50	–

Continued, in another order:

IC50 [2, 4]	IC50 [1, 6]	SMILES	α4β1/α4β7 [2, 5]	other results
> 500 nM	< 10 nM	Cc1cccc(C)c1-c1c(F)c(C(CC(=O)O)NC(=O)C(CC(C)C)n2cc(CCN(C)C)c(C(F)(F)F)cc2=O)c(F)c2c1CCC2 (single isomer, unassigned) [Trifluoroacetate salt of compound 20-2]	648	–
> 100 nM	–	Cc1cc(F)cc(C)c1-c1c(F)c(C(CC(=O)O)NC(=O)[C@H](CC(C)C)n2cc(CC3CN(C(C)C)C3)c(C(F)(F)F)cc2=O)c(F)c2c1CCC2 (stereo partly shown) [Trifluoroacetate salt of compound 32-2]	220	IC50 [1, 3]: < 1 nM
> 500 nM	< 10 nM	CC#Cc1cc(-c2c(C)cccc2C)c(F)c(C(CC(=O)O)NC(=O)C(CC(C)C)n2cc(CC3CN(C(C)C)C3)c(C(F)(F)F)cc2=O)c1F (single isomer, unassigned) [Trifluoroacetate salt of compound 18-2]	258	–
–	< 10 nM	CC#Cc1cc(-c2c(C)cccc2C)c(F)c(C(CC(=O)O)NC(=O)[C@H](CC(C)C)n2cc(CCN3CCC4(CC4)C3)c(C(F)(F)F)cc2=O)c1F (single isomer, unassigned) [Compound 6-2]	–	–
–	< 10 nM	COc1ccc(C)c(-c2c(F)c(C(CC(=O)O)NC(=O)[C@H](CC(C)C)n3cc(CCN(C)C)c(C(F)(F)F)cc3=O)c(F)c3c2CCC3)c1C (single isomer, unassigned) [Compound 50-2]	–	–
> 500 nM	< 10 nM	CC#Cc1cc(-c2c(C)cccc2C)c(F)c(C(CC(=O)O)NC(=O)C(CC(C)C)n2cc(CC3CCN(C(C)C)CC3)c(C(F)(F)F)cc2=O)c1F (single isomer, unassigned) [Trifluoroacetate salt of compound 23-2]	310	–
–	< 10 nM	C#CC1CN(CCc2cn(C(CC(C)C)C(=O)NC(CC(=O)O)c3cc4c(c(-c5c(C)cc(F)cc5C)c3)CCC4)c(=O)cc2C(F)(F)F)C1 (single isomer, unassigned) [Compound 3-2]	–	–
–	< 10 nM	Cc1cc(F)cc(C)c1-c1c(F)c(C(CC(=O)O)NC(=O)[C@H](CC(C)C)n2cc(CCC3CCCN3C)c(C(F)(F)F)cc2=O)c(F)c2c1CCC2 (single isomer, unassigned) [Trifluoroacetate salt of compound 28-2]	130	–
> 100 nM	< 10 nM	CC#Cc1cc(-c2c(C)cccc2C)c(F)c(C(CC(=O)O)NC(=O)C(CC(C)C)n2cc(CCC3CCN(C)C3)c(C(F)(F)F)cc2=O)c1F (single isomer, unassigned) [Trifluoroacetate salt of compound 27-2]	133	–
